Data on four cell lines can be found in the supplement of paper PMC10307832.

Assay in all cases: relative viability (nuclei count vs DMSO), 5 days (fraction); higher = more cells survive
Compound in assay [1]: COc1cc2nccc(Oc3ccc(NC(=O)C4(C(=O)Nc5ccc(F)cc5)CC4)cc3)c2cc1OC [Cabozantinib] + CS(=O)(=O)N1CCN(Cc2cc3nc(-c4cccc5[nH]ncc45)nc(N4CCOCC4)c3s2)CC1 [Pictilisib] (partner 1 µM)
An outline of the steps: (§1)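 Five library-drug doses in √10 steps were combined with a fixed anchor-drug dose, or a single drug was given alone, by pin tool to lung cancer cell lines in 1536-well plates the day after seeding. Nuclei were stained and counted after 5 days. Relative viability is the nuclei count in treated wells over that in vehicle wells, taken as the median of duplicate plates.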

Compound in the assay “Zosuquidar + Alpelisib”: O[C@@H](COc1cccc2ncccc12)CN1CCN([C@@H]2c3ccccc3[C@@H]3[C@H](c4ccccc42)C3(F)F)CC1 [Zosuquidar] + Cc1nc(NC(=O)N2CCC[C@H]2C(N)=O)sc1-c1ccnc(C(C)(C)C(F)(F)F)c1 [Alpelisib] (partner 2 µM)
An outline of the steps: as §1

Compound in the assay “Cabozantinib + Foretinib”: COc1cc2nccc(Oc3ccc(NC(=O)C4(C(=O)Nc5ccc(F)cc5)CC4)cc3)c2cc1OC [Cabozantinib] + COc1cc2c(Oc3ccc(NC(=O)C4(C(=O)Nc5ccc(F)cc5)CC4)cc3F)ccnc2cc1OCCCN1CCOCC1 [Foretinib] (partner 0.25 µM)
An outline of the steps:
as §1

Compound in the assay “Kobe2602 + Pemetrexed”: C1=CC(=CC=C1NC(=S)NNC2=C(C=C(C=C2[N+](=O)[O-])C(F)(F)F)[N+](=O)[O-])F [Kobe2602] + Nc1nc2[nH]cc(CCc3ccc(C(=O)N[C@@H](CCC(=O)O)C(=O)O)cc3)c2c(=O)[nH]1 [Pemetrexed] (partner 0.2 µM)
An outline of the steps:
as §1

On to NCI-H838, for which the relative viability was determined as 0.499 in assay [1] (first compound 0.02 µM); 0.574 in assay [1] (first compound 0.06325 µM); 0.529 in assay [1] (first compound 0.2 µM); 0.394 in assay [1] (first compound 0.6325 µM); 0.417 in assay [1] (first compound 2 µM); 0.995 in the assay with Zosuquidar + Alpelisib (first compound 0.01 µM). Further, the relative viability with Zosuquidar + Alpelisib (first compound 0.03162 µM) came out at 0.994; in the assay with Zosuquidar + Alpelisib (first compound 0.1 µM), 0.822; with Zosuquidar + Alpelisib (first compound 0.3162 µM), 1.07; in the assay with Zosuquidar + Alpelisib (first compound 1 µM) it was 1.07; with Cabozantinib + Foretinib (first compound 0.02 µM), 1.13; in the assay with Cabozantinib + Foretinib (first compound 0.06325 µM), 1.08. Besides, the relative viability with Cabozantinib + Foretinib (first compound 0.2 µM) was determined as 1.04; with Cabozantinib + Foretinib (first compound 0.6325 µM), 1.02; with Cabozantinib + Foretinib (first compound 2 µM), 1.01; with Kobe2602 + Pemetrexed (first compound 0.2 µM), 0.257; with Kobe2602 + Pemetrexed (first compound 0.6325 µM), 0.251; with Kobe2602 + Pemetrexed (first compound 2 µM), 0.261. Moreover, the relative viability with Kobe2602 + Pemetrexed (first compound 6.325 µM) stood at 0.246; with Kobe2602 + Pemetrexed (first compound 20 µM), 0.232.

Turning to NCI-H1355, the relative viability in assay [1] (first compound 0.02 µM) worked out at 0.49; in assay [1] (first compound 0.06325 µM), 0.442; in assay [1] (first compound 0.2 µM), 0.453; in assay [1] (first compound 0.6325 µM) it was 0.432; in assay [1] (first compound 2 µM) it was 0.526; with Zosuquidar + Alpelisib (first compound 0.01 µM), 0.851. In addition, the relative viability with Zosuquidar + Alpelisib (first compound 0.03162 µM) was 0.801; with Zosuquidar + Alpelisib (first compound 0.1 µM), 0.596; with Zosuquidar + Alpelisib (first compound 0.3162 µM) it was 0.971; with Zosuquidar + Alpelisib (first compound 1 µM), 0.87; in the assay with Cabozantinib + Foretinib (first compound 0.02 µM), 1.08; in the assay with Cabozantinib + Foretinib (first compound 0.06325 µM), 1.1. In addition, the relative viability came out at 1.03 in the assay with Cabozantinib + Foretinib (first compound 0.2 µM); 1.08 with Cabozantinib + Foretinib (first compound 0.6325 µM); 0.949 in the assay with Cabozantinib + Foretinib (first compound 2 µM); 1.06 with Kobe2602 + Pemetrexed (first compound 0.2 µM); 1.07 with Kobe2602 + Pemetrexed (first compound 0.6325 µM); 0.992 with Kobe2602 + Pemetrexed (first compound 2 µM). Also, the relative viability came to 0.983 with Kobe2602 + Pemetrexed (first compound 6.325 µM) and 0.968 with Kobe2602 + Pemetrexed (first compound 20 µM).

On to NCI-H1395, for which the relative viability in assay [1] (first compound 0.02 µM) came to 0.657; in assay [1] (first compound 0.06325 µM), 0.644; in assay [1] (first compound 0.2 µM), 0.609; in assay [1] (first compound 0.6325 µM), 0.675; in assay [1] (first compound 2 µM), 0.689; in the assay with Zosuquidar + Alpelisib (first compound 0.01 µM), 1. Moreover, the relative viability with Zosuquidar + Alpelisib (first compound 0.03162 µM) worked out at 1.01; with Zosuquidar + Alpelisib (first compound 0.1 µM), 0.819; with Zosuquidar + Alpelisib (first compound 0.3162 µM), 1.17; with Zosuquidar + Alpelisib (first compound 1 µM), 1.17; in the assay with Cabozantinib + Foretinib (first compound 0.02 µM) it was 0.93; with Cabozantinib + Foretinib (first compound 0.06325 µM) it was 1.17. Besides, the relative viability in the assay with Cabozantinib + Foretinib (first compound 0.2 µM) was 1.07; in the assay with Cabozantinib + Foretinib (first compound 0.6325 µM) it was 1.06; with Cabozantinib + Foretinib (first compound 2 µM), 0.932; with Kobe2602 + Pemetrexed (first compound 0.2 µM), 1.04; with Kobe2602 + Pemetrexed (first compound 0.6325 µM), 1.01; with Kobe2602 + Pemetrexed (first compound 2 µM) it was 0.931. Moreover, the relative viability with Kobe2602 + Pemetrexed (first compound 6.325 µM) is 0.967; in the assay with Kobe2602 + Pemetrexed (first compound 20 µM), 0.843.

As for NCI-H1437, the relative viability in assay [1] (first compound 0.02 µM) worked out at 0.382; in assay [1] (first compound 0.06325 µM) it was 0.474; in assay [1] (first compound 0.2 µM) it was 0.486; in assay [1] (first compound 0.6325 µM) it was 0.471; in assay [1] (first compound 2 µM), 0.429; with Zosuquidar + Alpelisib (first compound 0.01 µM) it was 0.966. Further, the relative viability amounted to 0.961 with Zosuquidar + Alpelisib (first compound 0.03162 µM); 0.935 with Zosuquidar + Alpelisib (first compound 0.1 µM); 1.01 with Zosuquidar + Alpelisib (first compound 0.3162 µM); 0.994 in the assay with Zosuquidar + Alpelisib (first compound 1 µM); 1.29 with Cabozantinib + Foretinib (first compound 0.02 µM); 1.37 in the assay with Cabozantinib + Foretinib (first compound 0.06325 µM). The relative viability with Cabozantinib + Foretinib (first compound 0.2 µM) worked out at 1.29; with Cabozantinib + Foretinib (first compound 0.6325 µM) it was 1.27; with Cabozantinib + Foretinib (first compound 2 µM), 1.21; with Kobe2602 + Pemetrexed (first compound 0.2 µM), 0.303; with Kobe2602 + Pemetrexed (first compound 0.6325 µM) it was 0.317; with Kobe2602 + Pemetrexed (first compound 2 µM), 0.313. Besides, the relative viability in the assay with Kobe2602 + Pemetrexed (first compound 6.325 µM) amounted to 0.298; with Kobe2602 + Pemetrexed (first compound 20 µM), 0.295.
